From article PMC4975316 (EJIFCC, 2011)

Molecular target: T1, β2GPI (Homo sapiens, UniProt P02749)
T1 sequence (P02749 20-345): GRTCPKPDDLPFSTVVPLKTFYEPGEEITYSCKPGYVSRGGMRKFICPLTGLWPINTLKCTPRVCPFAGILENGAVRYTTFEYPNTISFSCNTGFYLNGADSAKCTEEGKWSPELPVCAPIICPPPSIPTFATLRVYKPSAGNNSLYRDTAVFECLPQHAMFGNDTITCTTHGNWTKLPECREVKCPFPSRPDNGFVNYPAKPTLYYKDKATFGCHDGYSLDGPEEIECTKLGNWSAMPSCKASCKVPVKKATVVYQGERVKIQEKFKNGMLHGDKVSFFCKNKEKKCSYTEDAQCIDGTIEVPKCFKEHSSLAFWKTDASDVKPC
Experiment: Surface plasmon resonance
Format: binding
Conditions: inferred from extremely fast dissociation; 0.005% PBST pH 7.4, 25°C

## KVWTIPRGGGS
  Affinity towards β2GPI indicated by dissociation (SPR): low affinity towards β2GPI
